Reference: PubChem BioAssay AID489032 (Sanford-Burnham Center for Chemical Genomics, 2010)
Active and inactive are the calls of the source. The rule behind the calls is not given here.

Tested on: UPR adaptive arm reporter cells, luciferase luminescence
Assay: activators of adaptive UPR signalling, dose response, cell-based, luciferase luminescence (AID 489032)

With `Nc1nc(SCc2ccc(Cl)cc2Cl)nc2nc3c(cc12)CCCC3` as the compound, how does the EC50 read?
The EC50 was > 80 µM (inactive).

`NS(=O)(=O)c1ccc(N/N=C/c2cn(-c3ccccc3)nc2-c2ccccc2)c([N+](=O)[O-])c1` was tested. Which EC50 did it give?
Its EC50 is > 80 µM (inactive).

With `Cc1ccc(NS(=O)(=O)c2cc([N+](=O)[O-])ccc2N/N=C/c2sc(N3CCOCC3)nc2-c2ccccc2)c(C)c1` as the compound, how does the EC50 read?
Its EC50 is > 80 µM (inactive).

For `CC1CCC(C(C)C)C(OC(=O)Cn2c(-c3ccc(Br)cc3)[n+](C)c3ccccc32)C1` (stereo not given), which EC50 is on record?
The EC50 was > 80 µM (inactive).

`O=C(c1ccc2c(c1)[nH]c(=S)n1c3ccccc3nc21)N1CCN(c2cccc(Cl)c2)CC1` was tested. Which EC50 did it give?
The EC50 was > 80 µM (inactive).

For `CCOC(=O)c1nnc(-c2ccc(C)cc2)nc1Sc1ccccc1Cl`, which EC50 is on record?
Its EC50 is > 80 µM (inactive).

Which EC50 does the source give for `CC(C)c1ccc(/C=C/C(=O)Nc2nc3ccc([N+](=O)[O-])cc3s2)cc1` here?
The EC50 was > 80 µM (inactive).

For `COc1ccc2cc(C)c3nnc(SCC(=O)Nc4nc(-c5ccc(F)cc5)cs4)n3c2c1`, which EC50 is on record?
Its EC50 is 23.7 µM (inactive).

For `CC(C)(C)c1ccc(C(=O)Nc2ccc(O)c3c(=O)cc(-c4cccc(Cl)c4)oc23)cc1`, which EC50 is on record?
Its EC50 is > 80 µM (inactive).

How did the EC50 turn out when `CCOc1cc(/C=N/N=C(\N)c2nonc2N)cc(Br)c1OCc1cccc2ccccc12` was run?
Its EC50 is > 80 µM (inactive).

`CCOc1ccc(C(=O)Nc2cc(-c3nc4ccccc4[nH]3)ccc2Cl)cc1[N+](=O)[O-]` was tested. Which EC50 did it give?
The EC50 was 24.2 µM (inactive).

With `Cc1ccc(Nc2nc(NCc3ccco3)c3ccccc3n2)cc1` as the compound, how does the EC50 read?
Its EC50 is 17.8 µM.

For `Nc1nc(Nc2cccc(F)c2)nc2ccccc12`, which EC50 is on record?
Its EC50 is 73.9 µM (inactive).

`COC(=O)c1cc([N+](=O)[O-])c(-n2ccnc2)c([N+](=O)[O-])c1` was tested. Which EC50 did it give?
The EC50 was > 80 µM (inactive).

For `COc1ccc(/C=c2\s/c(=C(/C#N)C(=O)NCc3ccco3)n(-c3ccccc3)c2=O)cc1`, which EC50 is on record?
The EC50 was > 80 µM (inactive).

`CCC(=O)Nc1ccc(NC(=O)CSc2nc3cc4c(cc3cc2C)CCC4)cc1` was tested. Which EC50 did it give?
The EC50 was > 80 µM (inactive).

`CCOC(=O)C1=C(O)/C(=C/c2cn(CC(=O)NCC3CCCO3)c3ccccc23)SC1=Nc1ccc(C)cc1` (stereo not given) was tested. Which EC50 did it give?
Its EC50 is > 80 µM (inactive).

Which EC50 does the source give for `COC(=O)c1c(C)oc2ccc(N(C(=O)Oc3ccccc3)S(=O)(=O)c3ccc(Cl)c([N+](=O)[O-])c3)cc12` here?
The EC50 was 20.1 µM (inactive).

With `Cc1cccc(NC(=O)c2nc[nH]c2C(=O)Nc2ccccc2[N+](=O)[O-])c1` as the compound, how does the EC50 read?
The EC50 was > 80 µM (inactive).

`COc1cc(/C=C2/C(=N)N3C=CSC3=NC2=O)ccc1OCCCOc1cc(C)ccc1C` was tested. Which EC50 did it give?
Its EC50 is > 80 µM (inactive).

For `O=C(Nc1nc2ccccc2s1)c1cc2c(s1)-c1ccccc1OC2`, which EC50 is on record?
The EC50 was 44.9 µM (inactive).

`COc1ccc(-c2cc(-c3ccccc3)c(C#N)c(S(C)(=O)=O)n2)cc1` was tested. Which EC50 did it give?
The EC50 was 4.88 µM.

How did the EC50 turn out when `CC(=O)Oc1ccc(-c2ccc(C(=O)OCC(=O)N(C)CC(=O)Nc3ccccc3Cl)cc2)cc1` was run?
Its EC50 is 2.46 µM.

With `Cc1ccc(-n2c(O)c(/C=N/c3ncc(Br)cc3Br)c(=O)[nH]c2=O)cc1` as the compound, how does the EC50 read?
Its EC50 is 26.8 µM (inactive).

For `COc1ccc2cc1Oc1ccc(cc1)CC1c3c(cc(OC)c4c3Oc3cc5c(cc3O4)CCNC5C2)CCN1C` (stereo not given), which EC50 is on record?
The EC50 was > 80 µM (inactive).

`CCOC(=O)c1nnc(-c2ccc(C)cc2)nc1Sc1cccc(Cl)c1` was tested. Which EC50 did it give?
The EC50 was > 80 µM (inactive).

How did the EC50 turn out when `Brc1ccc(-c2ccc(/C=N/Nc3nncc(-c4ccccc4)n3)o2)cc1` was run?
Its EC50 is 77.6 µM (inactive).

`CN(C)c1ccc(/C=C/[N+](=O)[O-])cc1` was tested. Which EC50 did it give?
The EC50 was > 80 µM (inactive).

For `CCOC(=O)c1c(NC(=O)/C=C/C(=O)O)sc(C)c1-c1ccc(C(C)(C)C)cc1`, which EC50 is on record?
The EC50 was 25.6 µM (inactive).

`CCC(Sc1nnc2c3ccccc3n(CC)c2n1)C(=O)Nc1sc2c(c1C#N)CCCC2` (stereo not given) was tested. Which EC50 did it give?
The EC50 was 16.5 µM.

For `N/C(=N\c1nc(CSc2ccccn2)cc(=O)[nH]1)Nc1ccc(Cl)cc1Cl`, which EC50 is on record?
The EC50 was > 80 µM (inactive).

How did the EC50 turn out when `COc1cc2c(cc1NC(=S)NC(=O)/C=C/c1ccco1)oc1ccccc12` was run?
The EC50 was 21.3 µM (inactive).

With `c1cc(SC2CCCCC2)cc(-c2nc3cnccn3c2NC2CCCCC2)c1` as the compound, how does the EC50 read?
The EC50 was 28.9 µM (inactive).

How did the EC50 turn out when `CC(C)N=C(NS(=O)(=O)c1ccccc1)C(Cl)(Cl)Cl` was run?
Its EC50 is > 80 µM (inactive).

For `CCOc1ccc(-c2nnc(SCC(=O)Nc3ccc4c(c3)c3ccccc3n4CC)n2N)cc1`, which EC50 is on record?
Its EC50 is > 80 µM (inactive).

`Cc1ccc(C(C)C)c(OCc2ccc(C(=O)N/N=C/c3ccc(O)c(O)c3)cc2)c1` was tested. Which EC50 did it give?
Its EC50 is 8.24 µM.

For `O=C(/C(=N/N=C/c1ccc(O)c(O)c1)c1ccccc1)c1ccccc1`, which EC50 is on record?
The EC50 was > 80 µM (inactive).

For `Cc1ccc(Cc2cnc(NC(=O)/C(C#N)=C/c3ccc(-c4ccc([N+](=O)[O-])cc4)o3)s2)cc1`, which EC50 is on record?
The EC50 was 9.69 µM.

With `COc1c(Cl)cc(Cl)cc1/C=N/NC(=O)c1nnn(-c2nonc2N)c1CN1CCC(C)CC1` as the compound, how does the EC50 read?
The EC50 was 50 µM (inactive).

With `COc1ccc(C(=O)/C=C/c2ccc(O)cc2)c(O)c1C/C=C(\C)CCC=C(C)C` as the compound, how does the EC50 read?
The EC50 was > 80 µM (inactive).
